Drawing on PubChem BioAssay AID330 (DTP/NCI, 2004), this text covers T/C for 25 molecules.

Values joined by “and” are separate entries in the source; they are usually repeats but may differ in a detail not shown here. Identical values can stand only once. Toxic doses and inconclusive results are not listed.

The subject of the assay is P388 leukemia ip, CD2F1 mice, survival T/C. The assay can be described thus: NCI In Vivo Anticancer Drug Screen. Data for tumor model P388 Leukemia (intraperitoneal) in CD2F1 (CDF1) mice. The note with it: endpoint: median survival time, higher = longer survival. The method in brief:
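Mice carrying the transplanted tumor received test compound or vehicle. Survival was recorded in each group, and the value is the treated-group measurement divided by that of the vehicle-treated control group.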

[1] abbreviates: dose: 50.0 mg/kg/injection, schedule: Q01DX005 (ip), vehicle: saline with Tween-80.
[2] abbreviates: dose: 200.0 mg/kg/injection, schedule: Q01DX005 (ip), vehicle: saline with Tween-80.
Where [3] appears, read: dose: 25.0 mg/kg/injection, schedule: Q01DX009 (ip), vehicle: saline with Tween-80.
The mark [4] stands for this setting: dose: 50.0 mg/kg/injection, schedule: Q01DX009 (ip), vehicle: saline with Tween-80.
Where [5] appears, read: dose: 100.0 mg/kg/injection, schedule: Q01DX009 (ip), vehicle: saline with Tween-80.
[6] abbreviates: dose: 50.0 mg/kg/injection, schedule: Q01DX009 (ip), vehicle: Klucel (hydroxypropylcellulose) (HPC).
The mark [7] stands for this setting: dose: 100.0 mg/kg/injection, schedule: Q01DX009 (ip), vehicle: Klucel (hydroxypropylcellulose) (HPC).
The mark [8] stands for this setting: dose: 200.0 mg/kg/injection, schedule: Q01DX009 (ip), vehicle: Klucel (hydroxypropylcellulose) (HPC).
[9] abbreviates: dose: 100.0 mg/kg/injection, schedule: Q01DX001 (ip), vehicle: Klucel (hydroxypropylcellulose) (HPC).
[10] abbreviates: dose: 400.0 mg/kg/injection, schedule: Q01DX001 (ip), vehicle: Klucel (hydroxypropylcellulose) (HPC).
The mark [11] stands for this setting: dose: 50.0 mg/kg/injection, schedule: Q01DX005 (ip), vehicle: Klucel (hydroxypropylcellulose) (HPC).
The mark [12] stands for this setting: dose: 100.0 mg/kg/injection, schedule: Q01DX005 (ip), vehicle: Klucel (hydroxypropylcellulose) (HPC).
Setting [13] is: dose: 200.0 mg/kg/injection, schedule: Q01DX005 (ip), vehicle: Klucel (hydroxypropylcellulose) (HPC).
The mark [14] stands for this setting: dose: 60.0 mg/kg/injection, schedule: Q01DX005 (ip), vehicle: saline with Tween-80.
[15] abbreviates: dose: 120.0 mg/kg/injection, schedule: Q01DX005 (ip), vehicle: saline with Tween-80.
[16] abbreviates: dose: 240.0 mg/kg/injection, schedule: Q01DX005 (ip), vehicle: saline with Tween-80.
The mark [17] stands for this setting: dose: 200.0 mg/kg/injection, schedule: Q01DX009 (ip), vehicle: saline with Tween-80.

On to `CCOC(=O)C(=CNc1cccc2c(O)cccc12)C(=O)OCC`, for which the T/C is 90 % of control (dose: 12.5 mg/kg/injection, schedule: Q01DX005 (ip), vehicle: saline with Tween-80); 93 % of control (dose: 25.0 mg/kg/injection, schedule: Q01DX005 (ip), vehicle: saline with Tween-80); 97 % of control under setting [1]; 95 % of control under setting [2].

Regarding `O=C(O)C1Cc2c([nH]c3ccccc23)C2CCC(=O)N12` (stereo not given), the T/C (dose: 25.0 mg/kg/injection, schedule: Q04DX003 (ip), vehicle: suspension in saline) is 106 % of control; the T/C (dose: 50.0 mg/kg/injection, schedule: Q04DX003 (ip), vehicle: suspension in saline) was 96 % of control; the T/C (dose: 100.0 mg/kg/injection, schedule: Q04DX003 (ip), vehicle: suspension in saline) was 98 % of control; the T/C (dose: 200.0 mg/kg/injection, schedule: Q04DX003 (ip), vehicle: suspension in saline) was 98 % of control.

For `Nc1c(C(=O)O)[nH]c(=O)[nH]c1=O`, the T/C is, setting by setting: (dose: 12.5 mg/kg/injection, schedule: Q01DX009 (ip), vehicle: saline with Tween-80) 119 % of control; under setting [3], 119 % of control; under setting [4], 120 % of control; under setting [5], 118 % of control.

Consider `COc1ccccc1/C=N\NC(=O)C(=O)N/N=C\c1ccccc1OC`, for which the T/C was 86 % of control under setting [6], 90 % of control under setting [7] and 98 % of control under setting [8].

For the molecule `CC1CN2C(=O)NC(=O)C1(c1ccccc1)C2=O` (stereo not given), the T/C reads like this: under setting [6], 100 % of control; under setting [7], 93 % of control; under setting [8], 97 % of control.

`CSc1nccn2cnnc12`: the T/C runs as follows: under setting [9], 101 % of control; (dose: 200.0 mg/kg/injection, schedule: Q01DX001 (ip), vehicle: Klucel (hydroxypropylcellulose) (HPC)) 104 % of control; under setting [10], 101 % of control.

On to `CCOC(=O)c1nc[nH]c1C`, for which the T/C runs as follows: under setting [1], 100 % of control; (dose: 100.0 mg/kg/injection, schedule: Q01DX005 (ip), vehicle: saline with Tween-80) 101 % of control; under setting [2], 100 % of control.

Regarding `OCc1c(Cl)nc2sccn12`, the T/C (dose: 25.0 mg/kg/injection, schedule: Q01DX001 (ip), vehicle: Klucel (hydroxypropylcellulose) (HPC)) is 109 % of control; the T/C (dose: 50.0 mg/kg/injection, schedule: Q01DX001 (ip), vehicle: Klucel (hydroxypropylcellulose) (HPC)) is 105 % of control; the T/C under setting [9] was 93 % of control and 97 % of control; the T/C under setting [10] is 92 % of control.

For the molecule `O=C(N1CCN(C(=O)S(=O)(=O)c2ccc(F)cc2)CC1)S(=O)(=O)c1ccc(F)cc1`, the T/C under setting [11] was 99 % of control, the T/C under setting [12] is 98 % of control and the T/C under setting [13] is 100 % of control.

Take `CCO/C=C1/N=C(c2ccc(OC)cc2OC)OC1=O`: the T/C under setting [14] is 95 % of control, the T/C under setting [15] is 104 % of control and the T/C under setting [16] was 106 % of control.

Consider `Nc1nc(N)nc(-c2cccc(Cl)c2)n1`, for which the T/C was 100 % of control under setting [14], 98 % of control under setting [15] and 100 % of control under setting [16].

For the molecule `COc1ccc(C#CC(O)C(F)(F)F)cc1` (stereo not given), the T/C under setting [3] is 102 % of control, the T/C under setting [4] is 106 % of control and the T/C under setting [5] was 107 % of control.

`CNC(=O)CCC(NS(=O)(=O)c1ccccc1)C(=O)O` (stereo not given): the T/C was 107 % of control under setting [11], 96 % of control under setting [12] and 95 % of control under setting [13].

For the molecule `O=C(Nc1ccccc1)c1cc2ccccc2oc1=O`, the T/C is 99 % of control (dose: 30.0 mg/kg/injection, schedule: Q01DX005 (ip), vehicle: saline with Tween-80); 95 % of control under setting [14]; 94 % of control under setting [15]; 100 % of control under setting [16].

As to `Clc1cccc(Cl)c1C(Nc1nc2ccccc2s1)Nc1nc2ccccc2s1`, the T/C (dose: 50.0 mg/kg/injection, schedule: Q01DX005 (ip), vehicle: Klucel + Tween-80) was 110 % of control; the T/C (dose: 100.0 mg/kg/injection, schedule: Q01DX005 (ip), vehicle: Klucel + Tween-80) is 106 % of control; the T/C (dose: 200.0 mg/kg/injection, schedule: Q01DX005 (ip), vehicle: Klucel + Tween-80) was 109 % of control.

Regarding `C(=N\Nc1nnc2c3cccnc3c3ccccc3c2n1)/c1ccc2c(c1)OCO2`, the T/C is, setting by setting: (dose: 100.0 mg/kg/injection, schedule: Q01DX001 (ip), vehicle: saline with Tween-80) 108 % of control; (dose: 200.0 mg/kg/injection, schedule: Q01DX001 (ip), vehicle: saline with Tween-80) 104 % of control.

Regarding `CNc1[nH]c(=O)ncc1N`, the T/C reads like this: (dose: 25.0 mg/kg/injection, schedule: Q01DX005 (ip), vehicle: Klucel (hydroxypropylcellulose) (HPC)) 98 % of control; under setting [11], 98 % of control; under setting [12], 98 % of control.

With `Oc1ccc(N=Cc2ccc(OCc3ccccc3)cc2)cc1`, the T/C is 97 % of control under setting [4], 93 % of control under setting [5] and 93 % of control under setting [17].

As for `COC(=O)/C=C1\Sc2ccccc2NC1=O`, the T/C is, setting by setting: under setting [4], 96 % of control; under setting [5], 96 % of control; under setting [17], 94 % of control.

In the case of `CC1CN1P(=O)(N1CCCCCC1)N1CC1C` (stereo not given), the T/C reads like this: (dose: 12.5 mg/kg/injection, schedule: Q04DX003 (ip), vehicle: saline) 104 % of control; (dose: 22.0 mg/kg/injection, schedule: Q01DX009 (ip), vehicle: saline) 122 % of control; (dose: 25.0 mg/kg/injection, schedule: Q04DX003 (ip), vehicle: saline) 100 % of control; (dose: 33.0 mg/kg/injection, schedule: Q01DX009 (ip), vehicle: saline) 155 % of control; (dose: 50.0 mg/kg/injection, schedule: Q01DX009 (ip), vehicle: saline) 154 % of control and 166 % of control; (dose: 75.0 mg/kg/injection, schedule: Q01DX009 (ip), vehicle: saline) 111 % of control. Also, where the note is “dose: 100.0 mg/kg/injection, schedule: Q04DX003 (ip), vehicle: saline”, the T/C was 158 % of control.

Regarding `COC(=O)c1[nH]c(=O)c2cccnc2c1O`, the T/C is 104 % of control (dose: 6.25 mg/kg/injection, schedule: Q01DX009 (ip), vehicle: saline); 100 % of control (dose: 12.5 mg/kg/injection, schedule: Q01DX009 (ip), vehicle: saline); 92 % of control (dose: 25.0 mg/kg/injection, schedule: Q01DX009 (ip), vehicle: saline); 103 % of control under setting [4]; 98 % of control under setting [5].

In the case of `CS(=O)(=O)c1cccc(C(=O)O)c1`, the T/C was 108 % of control under setting [6], 108 % of control under setting [7] and 99 % of control under setting [8].

On to `CN(C)CC(CN(C)C)C(=O)/C=C/c1ccc2c(c1)OCO2`, for which the T/C (dose: 0.78 mg/kg/injection, schedule: Q01DX005 (ip), vehicle: Klucel (hydroxypropylcellulose) (HPC)) is 112 % of control; the T/C (dose: 1.56 mg/kg/injection, schedule: Q01DX005 (ip), vehicle: Klucel (hydroxypropylcellulose) (HPC)) is 104 % of control; the T/C (dose: 3.12 mg/kg/injection, schedule: Q01DX005 (ip), vehicle: Klucel (hydroxypropylcellulose) (HPC)) was 104 % of control.

With `CN1C(=O)C23CC4=CC=CC(O)C4N2C(=O)C1(CO)SS3` (stereo not given), the T/C reads like this: (dose: 0.62 mg/kg/injection, schedule: Q04DX002 (ip), vehicle: saline with Tween-80) 103 % of control; (dose: 1.25 mg/kg/injection, schedule: Q04DX002 (ip), vehicle: saline with Tween-80) 104 % of control; (dose: 2.5 mg/kg/injection, schedule: Q04DX002 (ip), vehicle: saline with Tween-80) 119 % of control.

In the case of `CC1=CC(=O)C=C/C1=N/S(=O)(=O)c1ccccc1`, the T/C by setting is: (dose: 12.5 mg/kg/injection, schedule: Q01DX001 (ip), vehicle: saline with Tween-80) 100 % of control; (dose: 25.0 mg/kg/injection, schedule: Q01DX001 (ip), vehicle: saline with Tween-80) 90 % of control; (dose: 50.0 mg/kg/injection, schedule: Q01DX001 (ip), vehicle: saline with Tween-80) 100 % of control.
